Laboratory results published in ChEMBL document CHEMBL1955809, “Discovery of GS-9256: a novel phosphinic acid derived inhibitor of the hepatitis C virus NS3/4A protease with potent clinical activity” (Bioorg Med Chem Lett, 2012).
Active and inactive are the calls of the source. The calls are words filed in the database; no cut-off is given here.

Tests used:
Hepatitis C virus [1] = experiment: Inhibition of HCV1b NS3/4A protease; design: species or system Hepatitis C virus subtype 1b; details: for IC50: Hepatitis C virus
Hepatitis C virus [2] = experiment: Antiviral activity against HCV genotype 1b infected in human Huh cells expressing luc gene by replicon assay; assay type: functional, organism-based, Hepacivirus hominis
[3] = Permeability from apical to basolateral side in human Caco2 cells; assay type: ADME, cell-based; details: Caco-2, read-out: permeability
[4] = Permeability from basolateral to apical side in human Caco2 cells; assay type: ADME, cell-based; details: Caco-2, read-out: permeability
[5] = Drug excretion in iv dosed bile-cannulated rat bile assessed as parent compound level after 4 hrs; assay type: ADME, organism-based; details: read-out: Ae
[6] = Half life in dog at 1 mg/kg, iv; assay type: ADME, organism-based, Canis lupus familiaris; design: dose 1 mg/kg, route intravenous; details: in vivo
Canis familiaris = experiment: AUC in dog at 1 mg/kg, iv and 4 mg/kg, po; assay type: ADME, organism-based, Canis lupus familiaris, Plasma; details: in vivo
[7] = Clearance in dog at 1 mg/kg, iv and 4 mg/kg, po; assay type: ADME, organism-based, Canis lupus familiaris; details: in vivo
[8] = Volume of distribution at steady state in dog at 1 mg/kg, iv and 4 mg/kg, po; assay type: ADME, organism-based, Canis lupus familiaris; details: in vivo, read-out: Vdss
[9] = Oral bioavailability in dog at 4 mg/kg; assay type: ADME, organism-based, Canis lupus familiaris; details: in vivo
[10] = Dissociation constant, pKa of the compound; assay type: physicochemical
[11] = Clearance in dog; assay type: ADME, organism-based, Canis lupus familiaris; details: in vivo
[12] = Selectivity ratio of IC50 human protease 3 to IC50 for HCV 1b NS3/4A protease
[13] = Selectivity ratio of IC50 for cathepsin D to IC50 for HCV1b NS3/4A protease
[14] = Selectivity ratio of IC50 for cathepsin L to IC50 for HCV1b NS3/4A protease
[15] = Selectivity ratio of IC50 for human leukocyte protease to IC50 for HCV1b NS3/4A protease
[16] = Selectivity ratio of IC50 for porcine pancreatic elastase to IC50 for HCV1b NS3/4A protease
[17] = Inhibition of CYP450; assay type: ADME
[18] = molecular target: Voltage-gated inwardly rectifying potassium channel KCNH2 (Homo sapiens, UniProt Q12809); experiment: Inhibition of human ERG up to 25 uM
Voltage-gated inwardly rectifying potassium channel KCNH2, sequence (Q12809 whole entry): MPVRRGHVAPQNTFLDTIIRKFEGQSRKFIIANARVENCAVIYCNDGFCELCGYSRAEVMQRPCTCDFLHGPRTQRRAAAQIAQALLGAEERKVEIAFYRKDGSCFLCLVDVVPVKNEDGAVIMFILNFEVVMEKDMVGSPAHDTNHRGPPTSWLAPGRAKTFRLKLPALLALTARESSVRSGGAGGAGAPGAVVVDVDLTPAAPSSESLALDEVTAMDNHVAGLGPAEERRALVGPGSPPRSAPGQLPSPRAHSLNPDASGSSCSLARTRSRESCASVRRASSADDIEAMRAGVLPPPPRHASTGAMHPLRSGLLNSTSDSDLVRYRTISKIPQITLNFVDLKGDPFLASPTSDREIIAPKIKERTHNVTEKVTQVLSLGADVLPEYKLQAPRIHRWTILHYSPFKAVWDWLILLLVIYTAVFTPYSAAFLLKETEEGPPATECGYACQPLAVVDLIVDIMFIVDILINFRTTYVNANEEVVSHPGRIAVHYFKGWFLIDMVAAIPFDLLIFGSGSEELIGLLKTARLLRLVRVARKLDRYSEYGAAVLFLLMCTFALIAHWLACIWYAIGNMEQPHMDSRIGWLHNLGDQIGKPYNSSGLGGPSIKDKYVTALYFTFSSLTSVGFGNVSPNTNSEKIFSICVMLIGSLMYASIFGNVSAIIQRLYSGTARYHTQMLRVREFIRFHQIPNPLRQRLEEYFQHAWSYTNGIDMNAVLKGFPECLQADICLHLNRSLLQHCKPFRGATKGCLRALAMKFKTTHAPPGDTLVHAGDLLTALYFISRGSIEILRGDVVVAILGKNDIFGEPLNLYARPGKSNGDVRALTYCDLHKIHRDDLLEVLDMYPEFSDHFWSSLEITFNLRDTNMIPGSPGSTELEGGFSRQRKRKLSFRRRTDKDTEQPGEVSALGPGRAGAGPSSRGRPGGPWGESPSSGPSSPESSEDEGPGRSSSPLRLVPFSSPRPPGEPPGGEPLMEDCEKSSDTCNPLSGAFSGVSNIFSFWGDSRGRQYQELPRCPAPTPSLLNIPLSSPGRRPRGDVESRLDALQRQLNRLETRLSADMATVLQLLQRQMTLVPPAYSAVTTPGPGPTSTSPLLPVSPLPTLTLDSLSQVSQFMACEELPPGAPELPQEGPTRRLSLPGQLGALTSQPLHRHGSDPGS

[19] = Inhibition of P-glycoprotein
Bile salt export pump = Bile salt export pump (Homo sapiens, UniProt O95342); experiment: Inhibition of BSEP
Bile salt export pump, sequence (O95342 whole entry): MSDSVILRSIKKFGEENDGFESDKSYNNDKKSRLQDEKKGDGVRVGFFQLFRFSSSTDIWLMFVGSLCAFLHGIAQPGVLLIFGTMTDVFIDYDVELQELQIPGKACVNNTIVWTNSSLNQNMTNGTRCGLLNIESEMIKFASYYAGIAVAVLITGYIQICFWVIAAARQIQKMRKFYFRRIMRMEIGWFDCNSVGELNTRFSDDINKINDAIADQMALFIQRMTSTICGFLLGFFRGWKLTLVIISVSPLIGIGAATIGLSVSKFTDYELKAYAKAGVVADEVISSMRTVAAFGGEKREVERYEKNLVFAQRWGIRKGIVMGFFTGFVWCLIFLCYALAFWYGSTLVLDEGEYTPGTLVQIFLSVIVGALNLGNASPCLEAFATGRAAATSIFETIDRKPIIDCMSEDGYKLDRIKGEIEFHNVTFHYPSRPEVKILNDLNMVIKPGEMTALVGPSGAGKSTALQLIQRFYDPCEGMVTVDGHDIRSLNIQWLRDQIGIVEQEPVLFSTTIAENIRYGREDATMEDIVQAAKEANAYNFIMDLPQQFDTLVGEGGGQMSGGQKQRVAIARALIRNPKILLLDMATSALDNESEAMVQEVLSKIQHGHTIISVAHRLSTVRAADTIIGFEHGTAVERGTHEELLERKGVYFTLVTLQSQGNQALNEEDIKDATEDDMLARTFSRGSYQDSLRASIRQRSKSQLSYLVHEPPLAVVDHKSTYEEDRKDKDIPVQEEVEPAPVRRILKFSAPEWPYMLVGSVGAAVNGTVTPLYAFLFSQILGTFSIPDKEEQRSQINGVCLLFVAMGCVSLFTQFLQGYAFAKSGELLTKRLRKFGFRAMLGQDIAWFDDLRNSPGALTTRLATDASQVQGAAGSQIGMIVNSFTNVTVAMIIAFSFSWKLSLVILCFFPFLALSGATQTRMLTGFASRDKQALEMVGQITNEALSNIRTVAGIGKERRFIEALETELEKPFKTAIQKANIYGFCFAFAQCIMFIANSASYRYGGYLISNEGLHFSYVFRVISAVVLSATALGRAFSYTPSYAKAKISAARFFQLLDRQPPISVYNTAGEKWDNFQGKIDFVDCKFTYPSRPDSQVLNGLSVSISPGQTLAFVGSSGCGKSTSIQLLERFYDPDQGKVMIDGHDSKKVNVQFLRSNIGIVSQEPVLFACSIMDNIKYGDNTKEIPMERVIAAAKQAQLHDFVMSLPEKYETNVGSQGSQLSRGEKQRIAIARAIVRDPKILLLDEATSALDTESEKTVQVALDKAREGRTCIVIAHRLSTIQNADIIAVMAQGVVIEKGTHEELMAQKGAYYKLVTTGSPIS

[20] = molecular target: T1, Solute carrier family 22 member 6 (Homo sapiens, UniProt Q4U2R8); experiment: Activity at OAT1
T1 sequence (Q4U2R8 whole entry): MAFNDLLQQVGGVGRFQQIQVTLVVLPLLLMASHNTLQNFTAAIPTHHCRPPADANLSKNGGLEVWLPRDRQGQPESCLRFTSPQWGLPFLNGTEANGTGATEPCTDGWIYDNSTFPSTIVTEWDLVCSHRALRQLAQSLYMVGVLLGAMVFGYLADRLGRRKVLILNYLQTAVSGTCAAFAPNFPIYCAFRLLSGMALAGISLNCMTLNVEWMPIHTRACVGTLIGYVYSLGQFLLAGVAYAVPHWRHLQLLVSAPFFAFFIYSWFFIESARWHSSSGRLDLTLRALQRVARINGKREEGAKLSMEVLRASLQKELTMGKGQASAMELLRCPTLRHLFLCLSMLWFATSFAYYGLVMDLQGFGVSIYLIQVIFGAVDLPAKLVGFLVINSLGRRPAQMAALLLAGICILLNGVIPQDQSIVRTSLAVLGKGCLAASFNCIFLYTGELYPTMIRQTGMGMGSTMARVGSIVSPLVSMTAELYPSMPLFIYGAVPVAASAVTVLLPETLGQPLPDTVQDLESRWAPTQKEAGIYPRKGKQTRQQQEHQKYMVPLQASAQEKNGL

[21] = molecular target: T2, Solute carrier family 22 member 7 (Homo sapiens, UniProt Q9Y694); experiment: Activity at OAT2
T2 sequence (Q9Y694 whole entry): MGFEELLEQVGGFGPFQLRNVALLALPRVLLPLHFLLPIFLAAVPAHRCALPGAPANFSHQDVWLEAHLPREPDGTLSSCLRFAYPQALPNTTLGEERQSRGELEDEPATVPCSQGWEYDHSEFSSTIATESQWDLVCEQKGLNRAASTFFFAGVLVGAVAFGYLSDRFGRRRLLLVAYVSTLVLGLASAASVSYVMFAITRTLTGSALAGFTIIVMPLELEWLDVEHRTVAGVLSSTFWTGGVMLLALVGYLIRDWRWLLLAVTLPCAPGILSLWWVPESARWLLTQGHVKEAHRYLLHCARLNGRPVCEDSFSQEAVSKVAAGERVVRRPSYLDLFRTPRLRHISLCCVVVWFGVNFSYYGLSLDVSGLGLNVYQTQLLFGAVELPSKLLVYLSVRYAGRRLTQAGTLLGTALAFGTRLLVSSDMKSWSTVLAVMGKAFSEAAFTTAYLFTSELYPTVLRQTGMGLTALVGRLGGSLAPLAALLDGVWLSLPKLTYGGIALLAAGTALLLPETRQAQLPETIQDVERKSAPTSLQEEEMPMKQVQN

[22] = Half life in human; assay type: ADME, organism-based; details: in vivo
Hepatitis C virus [23] = experiment: Antiviral activity against HCV genotype 1 infected in human at 150 mg, po; assay type: functional, Hepacivirus hominis
Hepatitis C virus [24] = experiment: Antiviral activity against HCV genotype 1 infected in human at 300 mg, po; assay type: functional, Hepacivirus hominis
Hepatitis C virus [25] = experiment: Antiviral activity against HCV genotype 1 infected in human at 450 mg, po; assay type: functional, Hepacivirus hominis

SMILES	IC50 (Hepatitis C virus [1]) [nM]	EC50 (Hepatitis C virus [2]) [nM]	Papp A→B [3] [nm/s]	Papp B→A [4] [nm/s]	other results
C=C[C@@H]1C[C@]1(NC(=O)[C@@H]1C[C@@H](Oc2cc(-c3csc(NC(C)C)n3)nc3cc(OC)ccc23)CN1C(=O)[C@@H](NC(=O)OC1CCCC1)C(C)(C)C)P(=O)(O)Cc1ccccc1OC	6	48	4.3	62	
C=C[C@@H]1C[C@]1(NC(=O)[C@@H]1C[C@@H](Oc2cc(-c3csc(NC(C)C)n3)nc3cc(OC)ccc23)CN1C(=O)[C@@H](NC(=O)OC1CCCC1)C(C)(C)C)P(=O)(O)Cc1c(F)cccc1F	4	74	12.2	106	dose excreted at 4 h [5]: > 90%; half-life [6]: 1.6 h; AUC (Canis familiaris): 3.12 µM·h; clearance [7]: 0.37 L/h/kg; Vd [8]: 0.31 L/kg; bioavailability [9]: 8%; pKa [10]: 2.7
COc1ccc2c(O[C@@H]3C[C@H]4C(=O)N[C@]5(P(=O)(O)Cc6ccccc6)C[C@H]5CCCCCCC[C@H](NC(=O)OC5CCCC5)C(=O)N4C3)cc(-c3csc(NC(C)C)n3)nc2c1	6	5			clearance [11]: 0.36 L/h/kg
COc1ccc2c(O[C@@H]3C[C@H]4C(=O)N[C@]5(C(=O)O)C[C@H]5/C=C\CCCCC[C@H](NC(=O)OC5CCCC5)C(=O)N4C3)cc(-c3csc(NC(C)C)n3)nc2c1 [CILUPREVIR]	1	1			
C=C[C@@H]1C[C@]1(NC(=O)[C@@H]1C[C@@H](Oc2cc(-c3csc(NC(C)C)n3)nc3cc(OC)ccc23)CN1C(=O)[C@@H](NC(=O)OC1CCCC1)C(C)(C)C)P(=O)(O)Cc1cccc(C)c1	8	331	6.4	35	
C=C[C@@H]1C[C@]1(NC(=O)[C@@H]1C[C@@H](Oc2cc(-c3csc(NC(C)C)n3)nc3cc(OC)ccc23)CN1C(=O)[C@@H](NC(=O)OC1CCCC1)C(C)(C)C)P(=O)(O)Cc1c(F)cccc1Cl	6	120	8.9	58.7	
COc1ccc2c(O[C@@H]3C[C@H]4C(=O)N[C@]5(P(=O)(O)Cc6c(F)cccc6F)C[C@H]5CCCCCCC[C@H](NC(=O)OC5CCCC5)C(=O)N4C3)cc(-c3csc(NC(C)C)n3)nc2c1	4	10			bioavailability [9]: 2.9%
C=C[C@@H]1C[C@]1(NC(=O)[C@@H]1C[C@@H](Oc2cc(-c3csc(NC(C)C)n3)nc3cc(OC)ccc23)CN1C(=O)[C@@H](NC(=O)OC1CCCC1)C(C)(C)C)P(=O)(O)Cc1ccccc1	7	170	7	61	
C=C[C@@H]1C[C@]1(NC(=O)[C@@H]1C[C@@H](Oc2cc(-c3csc(NC(C)C)n3)nc3cc(OC)ccc23)CN1C(=O)[C@@H](NC(=O)OC1CCCC1)C(C)(C)C)P(=O)(O)Cc1ccc(C)cc1	15	860	6.9	120	
C=C[C@@H]1C[C@]1(NC(=O)[C@@H]1C[C@@H](Oc2cc(-c3csc(NC(C)C)n3)nc3cc(OC)ccc23)CN1C(=O)[C@@H](NC(=O)OC1CCCC1)C(C)(C)C)P(=O)(O)Cc1cccc(F)c1	8	239	3.4	18	
COc1ccc2c(O[C@@H]3C[C@H]4C(=O)N[C@]5(P(=O)(O)Cc6c(F)cccc6F)C[C@H]5CCCCCCC[C@H](NC(=O)OC5CCCC5)C(=O)N4C3)cc(-c3csc(NC(C)C)n3)nc2c1Cl [GS-9256]	4	20			Ki (Hepatitis C virus [1]): 0.089 nM; Ratio IC50 [12]: 6600; dose excreted at 4 h [5]: 95%; bioavailability [9]: 21%; Ratio IC50 [13]: 5300; Ratio IC50 [14]: 5400; Ratio IC50 [15]: 987; Ratio IC50 [16]: 28600; inhibition (INH) [17]: Not Active; inhibition (INH) [18]: Not Active; inhibition [19]: Active; inhibition (INH) (Bile salt export pump): Active; Activity [20]: Active; Activity [21]: Active; half-life [22]: 7 h; Activity (Hepatitis C virus [23]): -1.8 log10IU/ml; Activity (Hepatitis C virus [24]): -2.4 log10IU/ml; Activity (Hepatitis C virus [25]): -2.8 log10IU/ml
COc1ccc2c(O[C@@H]3C[C@H]4C(=O)N[C@]5(P(=O)(O)Cc6c(F)cccc6F)C[C@H]5CCCCCCC[C@H](NC(=O)OC5CCCC5)C(=O)N4C3)cc(-c3csc(NC(C)C)n3)nc2c1F	11	43			bioavailability [9]: 6%
COc1ccc2c(O[C@@H]3C[C@H]4C(=O)N[C@]5(P(=O)(O)Cc6c(F)cccc6F)C[C@H]5CCCCCCC[C@H](NC(=O)OC5CCCC5)C(=O)N4C3)cc(-c3csc(NC(C)C)n3)nc2c1Br	3	7			bioavailability [9]: 4.1%
C=C[C@@H]1C[C@]1(NC(=O)[C@@H]1C[C@@H](Oc2cc(-c3csc(NC(C)C)n3)nc3cc(OC)ccc23)CN1C(=O)[C@@H](NC(=O)OC1CCCC1)C(C)(C)C)P(=O)(O)Cc1ccc(OC)cc1	10	460	7.1	58.3	
C=C[C@@H]1C[C@]1(NC(=O)[C@@H]1C[C@@H](Oc2cc(-c3csc(NC(C)C)n3)nc3cc(OC)ccc23)CN1C(=O)[C@@H](NC(=O)OC1CCCC1)C(C)(C)C)P(=O)(O)Cc1ccccc1F	4	170	5.3	27.4	
C=C[C@@H]1C[C@]1(NC(=O)[C@@H]1C[C@@H](Oc2cc(-c3csc(NC(C)C)n3)nc3cc(OC)ccc23)CN1C(=O)[C@@H](NC(=O)OC1CCCC1)C(C)(C)C)P(=O)(O)Cc1cccc(OC)c1	7	540	3.9	82.8	
C=C[C@@H]1C[C@]1(NC(=O)[C@@H]1C[C@@H](Oc2cc(-c3csc(NC(C)C)n3)nc3cc(OC)ccc23)CN1C(=O)[C@@H](NC(=O)OC1CCCC1)C(C)(C)C)P(=O)(O)Cc1ccc(F)cc1	7	284	8.4	43.8	
C=C[C@@H]1C[C@]1(NC(=O)[C@@H]1C[C@@H](Oc2cc(-c3csc(NC(C)C)n3)nc3cc(OC)ccc23)CN1C(=O)[C@@H](NC(=O)OC1CCCC1)C(C)(C)C)P(=O)(O)Cc1c(C)cccc1C	63	7700	1.9	29.3	
C=C[C@@H]1C[C@]1(NC(=O)[C@@H]1C[C@@H](Oc2cc(-c3csc(NC(C)C)n3)nc3cc(OC)ccc23)CN1C(=O)[C@@H](NC(=O)OC1CCCC1)C(C)(C)C)P(=O)(O)Cc1ccccc1C	8	146	6.9	39	
C=C[C@@H]1C[C@]1(NC(=O)[C@@H]1C[C@@H](Oc2cc(-c3csc(NC(C)C)n3)nc3cc(OC)ccc23)CN1C(=O)[C@@H](NC(=O)OC1CCCC1)C(C)(C)C)P(=O)(O)Cc1c(F)cccc1C(F)(F)F	6	340	5.3	63.6	
